Reference: ChEMBL document CHEMBL1201862, “PubChem BioAssay data set” (2004)
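Compound exposure: 48 hours, 5 concentrations, 96-well plates. Abbreviation: GI50, concentration required for 50% inhibition of growth.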 Calls of active or inactive are those of the source. Cut-off read from the data, not from the text of the source: active = GI50 up to about 1.1 µM and inactive = higher.

Tests used:
Test in all cases: NCI-60 cell line screen, 48 h
A549 = system: A549
CCRF-CEM = system: CCRF-CEM
COLO 205 = system: COLO 205
DU-145 = system: DU-145
HCT-116 = system: HCT-116
HOP-62 = system: HOP-62
IGROV-1 = system: IGROV-1
MCF7 = system: MCF7
NCI-H23 = system: NCI-H23
OVCAR-5 = system: OVCAR-5
PC-3 = system: PC-3
RPMI-8226 = system: RPMI-8226
SF-295 = system: SF-295
SN12C = system: SN12C
SNB-19 = system: SNB-19
SW-620 = system: SW-620
T47D = system: T47D
UACC-257 = system: UACC-257
MDA-N = system: MDA-N

Structure (SMILES)	GI50 (A549)	GI50 (CCRF-CEM)	GI50 (COLO 205)	GI50 (DU-145)	GI50 (HCT-116)	GI50 (HOP-62)	GI50 (IGROV-1)	GI50 (MCF7)	GI50 (NCI-H23)	GI50 (OVCAR-5)	GI50 (PC-3)	GI50 (RPMI-8226)	GI50 (SF-295)	GI50 (SN12C)	GI50 (SNB-19)	GI50 (SW-620)	GI50 (T47D)	GI50 (UACC-257)	GI50 (MDA-N)
CCCCCCCCCOC(=O)c1cnc(Cl)cn1	26.4 µM (inactive)	39.9 µM (inactive)	22.2 µM (inactive)	19.6 µM (inactive)	17.7 µM (inactive)	24 µM (inactive)	20.2 µM (inactive)	25 µM (inactive)	18.2 µM (inactive)	29 µM (inactive)	6.18 µM (inactive)	21.9 µM (inactive)	17.6 µM (inactive)	18.3 µM (inactive)	20.9 µM (inactive)	17.3 µM (inactive)	22.1 µM (inactive)	23.6 µM (inactive)	
CN(C)c1ccc(/C=C2\Oc3cc(O)ccc3C2=O)cc1	88.1 µM (inactive)	69.5 µM (inactive)	> 100 µM (inactive)	> 100 µM (inactive)	> 100 µM (inactive)	> 100 µM (inactive)	> 100 µM (inactive)	80.9 µM (inactive)	> 100 µM (inactive)		> 100 µM (inactive)	74.1 µM (inactive)	30.5 µM (inactive)	62.4 µM (inactive)	> 100 µM (inactive)	48.9 µM (inactive)	> 100 µM (inactive)	> 100 µM (inactive)	
COC(=O)n1c(=O)n(-c2ccccc2)c(=O)n1C(=O)Nc1ccccc1	> 100 µM (inactive)	96.2 µM (inactive)	> 100 µM (inactive)	> 100 µM (inactive)	> 100 µM (inactive)	> 100 µM (inactive)	> 100 µM (inactive)		> 100 µM (inactive)	> 100 µM (inactive)	> 100 µM (inactive)	96.4 µM (inactive)	> 100 µM (inactive)		> 100 µM (inactive)	> 100 µM (inactive)	> 100 µM (inactive)	> 100 µM (inactive)	
CC1(C)OCC(COC(=O)NCn2cc(-c3ccccc3)nn2)O1 (centres undefined)	> 100 µM (inactive)	> 100 µM (inactive)	> 100 µM (inactive)	> 100 µM (inactive)	> 100 µM (inactive)	> 100 µM (inactive)	> 100 µM (inactive)	> 100 µM (inactive)	> 100 µM (inactive)	> 100 µM (inactive)	> 100 µM (inactive)	> 100 µM (inactive)	> 100 µM (inactive)	> 100 µM (inactive)	> 100 µM (inactive)	> 100 µM (inactive)		> 100 µM (inactive)	
O=c1[nH]c(=O)n(C2CC(O)C(O)C(CO)O2)cc1F (centres undefined)	> 100 µM (inactive)	> 100 µM (inactive)	> 100 µM (inactive)		> 100 µM (inactive)	> 100 µM (inactive)	> 100 µM (inactive)		> 100 µM (inactive)	> 100 µM (inactive)		> 100 µM (inactive)	> 100 µM (inactive)	> 100 µM (inactive)	> 100 µM (inactive)	> 100 µM (inactive)		> 100 µM (inactive)	
COC1C(N(C)C)=C(c2ccccc2)C(=O)N2CCc3ccccc3C12 (centres undefined)	> 100 µM (inactive)	> 100 µM (inactive)	> 100 µM (inactive)	> 100 µM (inactive)	> 100 µM (inactive)	> 100 µM (inactive)	> 100 µM (inactive)	> 100 µM (inactive)	> 100 µM (inactive)	> 100 µM (inactive)	> 100 µM (inactive)		> 100 µM (inactive)	> 100 µM (inactive)	> 100 µM (inactive)	> 100 µM (inactive)	> 100 µM (inactive)	> 100 µM (inactive)	> 100 µM (inactive)
CC1=C2C(=O)NN=C2CCN1c1ccc(Br)cc1	> 100 µM (inactive)	2.2 µM (inactive)	> 100 µM (inactive)	> 100 µM (inactive)	> 100 µM (inactive)	> 100 µM (inactive)	> 100 µM (inactive)	> 100 µM (inactive)	> 100 µM (inactive)	> 100 µM (inactive)	> 100 µM (inactive)		> 100 µM (inactive)	> 100 µM (inactive)	> 100 µM (inactive)	> 100 µM (inactive)	70.3 µM (inactive)	> 100 µM (inactive)	> 100 µM (inactive)
Oc1cn(-c2ccc(Cl)cc2)nc1-c1n[nH]c(=S)n1-c1ccccc1	14.1 µM (inactive)		23 µM (inactive)	22.3 µM (inactive)	6.37 µM (inactive)	10 µM (inactive)	4.6 µM (inactive)	4.42 µM (inactive)	10.5 µM (inactive)	24.2 µM (inactive)	27.5 µM (inactive)	5.46 µM (inactive)	4.94 µM (inactive)	17.8 µM (inactive)	16.8 µM (inactive)	5.07 µM (inactive)	19.5 µM (inactive)	20.7 µM (inactive)	
O=C1C(=Cc2cccc(O)c2)N=C(c2ccccc2)N1n1c(-c2ccccc2)nc2ccccc2c1=O	36.9 µM (inactive)	24.3 µM (inactive)	31.4 µM (inactive)	27.7 µM (inactive)	17.5 µM (inactive)		20.7 µM (inactive)		22.1 µM (inactive)	37.1 µM (inactive)	23.8 µM (inactive)	17.4 µM (inactive)	24 µM (inactive)	34.1 µM (inactive)	25.9 µM (inactive)	42.3 µM (inactive)	34.9 µM (inactive)	29 µM (inactive)	
Cc1nn2c(C(=O)N/N=C/c3ccc([N+](=O)[O-])cc3)c(C)nc2s1	> 100 µM (inactive)	> 100 µM (inactive)	> 100 µM (inactive)	> 100 µM (inactive)	> 100 µM (inactive)	46.5 µM (inactive)	> 100 µM (inactive)	90.4 µM (inactive)	> 100 µM (inactive)	> 100 µM (inactive)			> 100 µM (inactive)	> 100 µM (inactive)	45.9 µM (inactive)	> 100 µM (inactive)	> 100 µM (inactive)	> 100 µM (inactive)	> 100 µM (inactive)
CCC/N=C1\S/C(=C/c2ccc(OC)c(OC)c2)C(=O)N1c1ccccc1	42.1 µM (inactive)	58.7 µM (inactive)	> 100 µM (inactive)		24 µM (inactive)	2.84 µM (inactive)	80.2 µM (inactive)	> 100 µM (inactive)	76.7 µM (inactive)	44.9 µM (inactive)	43.8 µM (inactive)	43.2 µM (inactive)	11.3 µM (inactive)	54.8 µM (inactive)	17.8 µM (inactive)	> 100 µM (inactive)	> 100 µM (inactive)	76.7 µM (inactive)	> 100 µM (inactive)
COc1cccc2c1C(=O)c1c(O)c3c(c(O)c1C2=O)CC(O)(C(C)=O)CC3OC1OC(COC(C)=O)C(OC(C)=O)C(OC(C)=O)C1OC(C)=O (centres undefined)	> 100 µM (inactive)	0.0276 µM (active)	79.4 µM (inactive)	26.9 µM (inactive)	55.8 µM (inactive)	10.2 µM (inactive)	16.3 µM (inactive)	65.2 µM (inactive)		24.1 µM (inactive)	> 100 µM (inactive)		17.2 µM (inactive)	48.3 µM (inactive)	16 µM (inactive)	> 100 µM (inactive)	38.8 µM (inactive)	< 0.01 µM (active)	
C/C(=N\Nc1nc2ccccc2[nH]1)c1cnccn1	1.88 µM (inactive)	0.31 µM (active)	0.415 µM (active)		0.379 µM (active)	0.619 µM (active)	0.139 µM (active)	0.542 µM (active)	1.71 µM (inactive)	6.84 µM (inactive)	3.92 µM (inactive)	0.533 µM (active)	1.77 µM (inactive)	1.25 µM (inactive)	2.72 µM (inactive)	0.4 µM (active)	0.437 µM (active)	2.94 µM (inactive)	1.9 µM (inactive)
CC1(O)C(=O)OC2CC([C@]3(O)CCC4[C@@H]5C[C@H]6O[C@]67[C@@H](O)C=CC(=O)[C@]7(C)C5CC[C@@]43C)C1(C)C2 (some centres undefined)	38.7 µM (inactive)	2.03 µM (inactive)	6.93 µM (inactive)	26.5 µM (inactive)	10.9 µM (inactive)	52.7 µM (inactive)	23.1 µM (inactive)		7.13 µM (inactive)	23.8 µM (inactive)	20.1 µM (inactive)	3.24 µM (inactive)	34.6 µM (inactive)	16.5 µM (inactive)	47.2 µM (inactive)	3.07 µM (inactive)	5.97 µM (inactive)	11.5 µM (inactive)	12.3 µM (inactive)
C[n+]1c(-c2ccc(/C=N/Nc3n[nH]c(=S)n3N/N=C/c3ccc(-c4cn5ccccc5[n+]4C)cc3)cc2)cn2ccccc21	> 100 µM (inactive)	> 100 µM (inactive)	> 100 µM (inactive)		> 100 µM (inactive)	> 100 µM (inactive)	> 100 µM (inactive)	> 100 µM (inactive)		> 100 µM (inactive)	> 100 µM (inactive)	> 100 µM (inactive)	> 100 µM (inactive)	> 100 µM (inactive)	> 100 µM (inactive)	> 100 µM (inactive)	> 100 µM (inactive)	> 100 µM (inactive)	> 100 µM (inactive)
CCCCCCNC(=O)c1cc(C#Cc2cc(OC)ccc2OC)ccc1OC	> 100 µM (inactive)		55.3 µM (inactive)				72.1 µM (inactive)	> 100 µM (inactive)	47.4 µM (inactive)	> 100 µM (inactive)	62.1 µM (inactive)	8.28 µM (inactive)	51.9 µM (inactive)		> 100 µM (inactive)	8.49 µM (inactive)	2.31 µM (inactive)	> 100 µM (inactive)	3.22 µM (inactive)
